{
  "source": "paper PMC3898987",
  "about": "(Bioorganic & Medicinal Chemistry, 2013)",
  "key": {"[1]": {"molecular_target": "T1, 5-HT3AB receptor, 5-HT3B subunit I183A (Homo sapiens, UniProt O95264+P46098, I176A)", "T1 sequence (P46098 24-478)": "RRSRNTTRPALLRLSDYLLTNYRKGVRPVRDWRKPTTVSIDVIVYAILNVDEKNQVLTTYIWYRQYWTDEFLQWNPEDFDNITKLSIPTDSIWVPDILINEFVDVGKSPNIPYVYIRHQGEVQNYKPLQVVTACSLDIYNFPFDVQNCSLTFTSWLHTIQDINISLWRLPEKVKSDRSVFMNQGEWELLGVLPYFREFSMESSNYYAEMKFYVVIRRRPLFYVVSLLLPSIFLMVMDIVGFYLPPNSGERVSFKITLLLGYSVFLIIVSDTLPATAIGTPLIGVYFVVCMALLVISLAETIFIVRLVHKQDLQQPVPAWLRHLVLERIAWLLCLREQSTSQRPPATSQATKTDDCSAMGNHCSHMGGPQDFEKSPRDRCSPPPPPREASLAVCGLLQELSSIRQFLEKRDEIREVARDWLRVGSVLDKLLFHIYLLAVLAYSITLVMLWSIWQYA", "T1 sequence (O95264 22-441 I176A)": "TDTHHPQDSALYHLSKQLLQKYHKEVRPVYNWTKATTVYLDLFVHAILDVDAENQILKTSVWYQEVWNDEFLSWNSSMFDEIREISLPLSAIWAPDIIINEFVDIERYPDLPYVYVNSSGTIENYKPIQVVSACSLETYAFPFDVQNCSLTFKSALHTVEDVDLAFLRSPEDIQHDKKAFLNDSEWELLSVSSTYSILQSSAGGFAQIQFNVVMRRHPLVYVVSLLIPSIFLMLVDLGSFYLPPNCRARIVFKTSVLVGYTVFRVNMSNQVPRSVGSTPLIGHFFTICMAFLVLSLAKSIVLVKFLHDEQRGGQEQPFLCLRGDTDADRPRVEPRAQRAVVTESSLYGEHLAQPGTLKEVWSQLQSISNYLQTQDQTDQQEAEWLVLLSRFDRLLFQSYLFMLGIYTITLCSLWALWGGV", "assay": "cell-based", "procedure": "For FlexStation assays, transfected cells were plated on 96-well plates and incubated 1–2 days before assay.\n(§1) Fluorometric studies were undertaken using a FlexStation® (Molecular Devices, Sunnyvale, CA, USA) as previously described.[11]\n(§2) Fluorescence was measured every 2 s for 200 s. […] Concentration–response and inhibition curves were obtained for each mutant, and the fluorescence values were normalized to the maximal response."}, "5-HT3A receptor Y73F": {"molecular_target": "T2, 5-HT3A receptor Y73F (Homo sapiens, UniProt P46098, Y68F)", "T2 sequence (P46098 24-478 Y68F)": "T1 sequence (P46098 24-478) with Y45F", "assay": "radioligand saturation binding, transfected HEK293 membranes", "conditions": "[3H]-palonosetron saturation, 5-HT3A Y73F, 4 °C, 24 h", "procedure": "(§3) Human embryonic kidney (HEK) 293 cells were cultured on 90 mm tissue culture plates at 37 °C and 7% CO2 in a humidified atmosphere. They were grown in DMEM:F12 (Dulbecco’s Modified Eagle’s Medium/Nutrient Mix F12 (1:1)) with GlutaMAX I™ containing 10% fetal calf serum and passaged when confluent. For radioligand binding studies, cells in 90 mm dishes were transfected at 60–70% confluency using polyethyleneimine and incubated for 3–4 days before use. For FlexStation assays, transfected cells were plated on 96-well plates and incubated 1–2 days before assay. […]\n(§4) Eight-point binding assays were performed to produce saturation binding curves. […] Radioactive counts were measured using a Beckman LS6000SC liquid scintillation counter (Fullerton, California, USA).\n(§5) Data were analyzed by iterative curve fitting using GraphPad Prism v5 (San Diego, CA) according to the following equation: B=Bmax[L]^n/kdn+[L]^n where B is the amount of bound radioligand, Bmax is the maximum specific binding at equilibrium, [L] is the concentration of radioligand, Kd is the equilibrium dissociation constant of the radioligand, and n is the Hill coefficient."}, "[2]": {"molecular_target": "T3, 5-HT3AB receptor, 5-HT3B subunit Y143A (Homo sapiens, UniProt O95264+P46098, Y136A)", "T3 sequence (P46098 24-478)": "T1 sequence (P46098 24-478)", "T3 sequence (O95264 22-441 Y136A)": "T1 sequence (O95264 22-441 I176A) with Y115A, A155I", "assay": "radioligand saturation binding, transfected HEK293 membranes", "conditions": "[3H]-palonosetron saturation, 5-HT3AB with 5-HT3B Y143A, 4 °C, 24 h", "procedure": "as §3, §4, §5"}, "[3]": {"molecular_target": "T4, 5-HT3AB receptor, 5-HT3B subunit F130A (Homo sapiens, UniProt O95264+P46098, F123A)", "T4 sequence (P46098 24-478)": "T1 sequence (P46098 24-478)", "T4 sequence (O95264 22-441 F123A)": "T1 sequence (O95264 22-441 I176A) with F102A, A155I", "assay": "radioligand saturation binding, transfected HEK293 membranes", "procedure": "as §3, §4, §5"}, "[4]": {"molecular_target": "T5, 5-HT3AB receptor, 5-HT3B subunit E170A (Homo sapiens, UniProt P46098)", "T5 construct": "variant as stated: E170A", "T5 sequence (P46098 24-478)": "T1 sequence (P46098 24-478)", "T5 sequence (O95264 22-441 partner)": "T1 sequence (O95264 22-441 I176A) with A155I", "assay": "FlexStation membrane potential dye functional assay, HEK293 cells", "type": "cell-based", "procedure": "Human embryonic kidney (HEK) 293 cells were cultured on 90 mm tissue culture plates at 37 °C and 7% CO2 in a humidified atmosphere. They were grown in DMEM:F12 (Dulbecco’s Modified Eagle’s Medium/Nutrient Mix F12 (1:1)) with GlutaMAX I™ containing 10% fetal calf serum and passaged when confluent. […] For FlexStation assays, transfected cells were plated on 96-well plates and incubated 1–2 days before assay.\nMutagenesis reactions were performed using either the Kunkel method or the QuikChange kit (Agilent Technologies Inc., CA, USA) using human 5-HT3A or 5-HT3B receptor subunit cDNA (accession numbers: P46098 and O95264) in pcDNA3.1 (Invitrogen, Paisley, UK). Subunit numberings have been altered to the aligning residues in the mouse 5-HT3A subunit for ease of comparison with other studies.\nas §1, §2"}},
  "note": "Changes are numbered by the printed parent chain.",
  "data": [
    {"smiles": "O=C1c2cccc3c2[C@H](CCC3)CN1[C@@H]1CN2CCC1CC2", "note": "[Palonosetron]", "values": [
      {"measurement": "IC50", "setting": "[1]", "result": "340 ± 80", "unit": "pM"},
      {"measurement": "Kd", "setting": "5-HT3A receptor Y73F", "result": "250 ± 40", "unit": "pM"},
      {"measurement": "Kd", "setting": "[2]", "result": "180 ± 40", "unit": "pM"},
      {"measurement": "Kd", "setting": "[3]; [3H]-palonosetron saturation, 5-HT3AB with 5-HT3B F130A, 4 °C, 24 h", "result": "480 ± 30", "unit": "pM"},
      {"measurement": "increase in Kd compared to wild type", "setting": "[3]; [3H]palonosetron, F130A (5-HT3B) containing heteromers vs WT 5-HT3AB", "result": "twofold"},
      {"measurement": "IC50", "setting": "[4]", "result": "360 ± 110", "unit": "pM"}
    ]}
  ]
}
